Molecules are shown by their SMILES.

Our source for the inhibition values is PMC8041284, “Tunable Methacrylamides for Covalent Ligand Directed Release Chemistry” (Journal of the American Chemical Society, 2021).

The target of one assay is BTK (Homo sapiens, UniProt Q06187). Kind of assay: biochemical. The following applies: read-out: BTK inhibition (%).
BTK, sequence (Q06187 402-655 limits assumed): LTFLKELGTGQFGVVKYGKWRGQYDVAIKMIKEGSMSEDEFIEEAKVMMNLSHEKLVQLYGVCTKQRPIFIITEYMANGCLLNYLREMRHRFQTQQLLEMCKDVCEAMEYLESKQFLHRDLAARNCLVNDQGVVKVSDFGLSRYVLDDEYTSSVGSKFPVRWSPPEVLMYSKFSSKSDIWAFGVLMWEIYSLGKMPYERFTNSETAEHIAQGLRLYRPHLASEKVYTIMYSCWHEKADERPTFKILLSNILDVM
Turning to `CC(=O)Nc1ccc(OC[C@](C)(O)C(=O)Nc2ccc([N+](=O)[O-])c(C(F)(F)F)c2)cc1` [PCM-0094957], the inhibition – broadly, the change of the read-out against control, counted positive when it falls – at 10 µM is -1.4%.

The same assay, now with this note: read-out: BTK inhibition (%), 0.75 uM BTK, […] probe 3l, 15 min preincubation.
As for `C[C@H]1O[C@@H](O[C@H]2CC[C@@]3(C)[C@@H](CC[C@]4(C)[C@@H]3C=C[C@]35OC[C@@]6(CCC(C)(C)C[C@H]63)[C@H](O)C[C@]54C)[C@]2(C)CO)[C@H](O)[C@@H](O[C@@H]2O[C@H](CO)[C@@H](O)[C@H](O)[C@H]2O)[C@H]1O` [PCM-0216171], the inhibition at 10 µM was 5.4%. Still for that read-out and setting: then `OC[C@H]1O[C@H](OC[C@H]2O[C@H](OC[C@H]3O[C@H](O[C@]4(CO)O[C@H](CO)[C@@H](O)[C@@H]4O)[C@H](O)[C@@H](O)[C@@H]3O)[C@H](O)[C@@H](O)[C@H]2O)[C@H](O)[C@@H](O)[C@H]1O` [PCM-0216230], with 17.8%; and `COc1ccccc1N1CCN(CCN2C(=O)CC3(CCCC3)CC2=O)CC1` [PCM-0064586], with -3.1%. On the same count and under the same terms, then `O=C(O)CC(O)C(=O)O` (stereo not shown) [PCM-0216336], with -11.6%; and `Nc1nc(N)c2nc(-c3ccccc3)c(N)nc2n1` [PCM-0065015], with -4.7%. As for `CC(C)(F)C[C@H](N[C@@H](c1ccc(-c2ccc(S(C)(=O)=O)cc2)cc1)C(F)(F)F)C(=O)NC1(C#N)CC1` [PCM-0094912], the inhibition at 10 µM is -23.3%. On the same count and under the same terms, the result for `COC(=O)c1ccc(O)c(OC)c1` [PCM-0214879] reads -12.5%.

With `Cc1cc(Nc2ncc(Cl)c(Nc3ccccc3S(=O)(=O)C(C)C)n2)c(OC(C)C)cc1C1CCNCC1` [PCM-0095745], the inhibition at 10 µM came out at 69.7%.

On to `CS(=O)(=O)Nc1cc2occ(NC=O)c(=O)c2cc1Oc1ccccc1` [PCM-0216251], for which the inhibition at 10 µM was determined as 6.2%. As to `CCC[C@H](N[C@@H](C)C(=O)N1[C@H](C(=O)O)C[C@@H]2CCCC[C@@H]21)C(=O)OCC` [PCM-0095182], the inhibition at 10 µM is -4.3%. The same measure, in the same setting: then `COc1ccc2c(c1)c(CC(=O)OCC(=O)O)c(C)n2C(=O)c1ccc(Cl)cc1` [PCM-0085879], with -19.3%; and `CCCc1nc2c(C)cc(-c3nc4ccccc4n3C)cc2n1Cc1ccc(-c2ccccc2C(=O)O)cc1` [PCM-0086294], with -10.9%. As to `COC(=O)N1CCN(Cc2cccc(NC(=O)Nc3ccc(C)nc3)c2F)CC1` [PCM-0214694], the inhibition at 10 µM was 0.8%. As for `CN1[C@@H]2CCC[C@H]1CC(NC(=O)c1nn(C)c3ccccc13)C2` (stereo partly shown) [PCM-0064932], the inhibition at 10 µM is 10.2%. On the same count and under the same terms, then `NCc1c[nH]c(=S)n1[C@@H]1CCc2c(F)cc(F)cc2C1` [PCM-0214808], with 4.7%. `CCCCC(=O)O[C@]1(C(=O)CO)[C@@H](C)C[C@H]2[C@@H]3CCC4=CC(=O)C=C[C@]4(C)[C@@]3(F)[C@@H](O)C[C@@]21C` [PCM-0095140]: the inhibition at 10 µM was -15.9%. The same measure, in the same setting: then `Cn1nnc(-c2ccc(-c3ccc(N4C[C@H](COP(=O)(O)O)OC4=O)cc3F)cn2)n1` [PCM-0214830], with 13.2%; and `CC12CCC(CC1)C(C)(C)O2` [PCM-0215918], with 11%; and `CC(C)n1ncnc1-c1cn2c(n1)-c1ccc(O[C@@H](C)C(N)=O)cc1OCC2` [PCM-0215832], with -8.3%.

As for `Cn1c(=O)c2c(ncn2CC(O)CO)n(C)c1=O` (stereo not shown) [PCM-0085824], the inhibition at 10 µM was found to be 0.8%. The same measure, in the same setting: then `O=C(/C=C/c1cccc(S(=O)(=O)Nc2ccccc2)c1)NO` [PCM-0095051], with 9%; and `COc1ccccc1OCC(O)COC(N)=O` (stereo not shown) [PCM-0085814], with 14.8%; and `O=C(O)CCc1c[nH]c2ccccc12` [PCM-0215055], with -34.2%.

`CCCCCCCN(CC)CCCC(O)c1ccc(NS(C)(=O)=O)cc1` (stereo not shown) [PCM-0086483]: the inhibition at 10 µM is -17.1%. The same measure, in the same setting: the result for `CC(=O)c1ccccc1O` [PCM-0216621] reads 0.8%; that for `COc1cc(/C=C/C=O)ccc1O` [PCM-0216477], 1.5%. Same read-out and setting: the result for `CC(C)(C)C(=O)Oc1ccc(S(=O)(=O)Nc2ccccc2C(=O)NCC(=O)O)cc1` [PCM-0064760] reads 11.7%; that for `CC(C)Cc1ccc([C@@H](C)C(=O)NS(C)(=O)=O)cc1` [PCM-0215882], -24.8%; that for `COc1cc2c(Oc3ccc4[nH]c(C)cc4c3F)ccnc2cc1OCC1(N)CC1` [PCM-0216115], 39.4%. Take `CC(=O)O` [PCM-0215080]: the inhibition at 10 µM was -2.3%. For the compound `OC[C@H]1O[C@@H](Oc2ccc(O)cc2)[C@H](O)[C@@H](O)[C@@H]1O` [PCM-0086306], the inhibition at 10 µM is -6.2%.

With `C/C(=C\CNc1ncnc2nc[nH]c12)CO` [PCM-0215137], the inhibition at 10 µM is -13.2%. Same read-out and setting: then `CC(C)N(CCC(=O)c1ccc2ccccc2c1)Cc1ccccc1` [PCM-0064875], with 29%; and `N#Cc1ccc(-c2csc(NN=C3CCCC3)n2)cc1` [PCM-0215381], with 43.2%; and `COc1cnc(NS(=O)(=O)c2ccc(N)cc2)nc1` [PCM-0086492], with 5.4%. On the same count and under the same terms, the result for `Cn1c(=O)c(F)c(Nc2ccc(I)cc2F)c2c(=O)n(C[C@@H](O)CO)cnc21` [PCM-0095463] reads 7.6%; that for `O=C(CCCCc1ccc2c(c1)OCO2)N1CCCCC1` [PCM-0216131], -17.8%. Turning to `N#C[C@@H]1CCCN1C(=O)CNC12CC3CC(CC(O)(C3)C1)C2` [PCM-0095499], the inhibition at 10 µM was 1.6%.

As for `C=CCc1ccc(O)c(-c2ccc(O)c(CC=C)c2)c1` [PCM-0094855], the inhibition at 10 µM is 37.9%. For `C[C@@H]1CC[C@@]2(OC1)O[C@H]1C[C@H]3[C@@H]4CC=C5C[C@@H](O[C@@H]6O[C@H](CO)[C@@H](O[C@@H]7O[C@@H](CO)[C@H](O)[C@H]7O)[C@H](O)[C@H]6O[C@@H]6O[C@@H](C)[C@H](O)[C@@H](O)[C@H]6O)CC[C@]5(C)[C@H]4CC[C@]3(C)[C@H]1[C@@H]2C` [PCM-0216403], the inhibition at 10 µM is -10%. On the same count and under the same terms, then `O=CO` [PCM-0216152], with -12.4%; and `CN(CCN1CCC(OC(=O)Nc2ccccc2-c2ccccc2)CC1)C(=O)c1ccc(CN2CCC(C(N)=O)CC2)cc1` [PCM-0216137], with -10%; and `NCCc1ccccc1` [PCM-0091318], with 0%. Consider `CCOC(=O)[C@H](CCc1ccccc1)N[C@@H](C)C(=O)N1C(=O)N(C)C[C@H]1C(=O)O` [PCM-0214860], for which the inhibition at 10 µM was 7%.

With `NC1=N[C@@]2(c3cc(NC(=O)c4ccc(F)cn4)ccc3F)COC[C@H]2CS1` [PCM-0095207], the inhibition at 10 µM is -3.1%.

As to `NC(=O)c1cccc(-c2cccc(OC(=O)NC3CCCCC3)c2)c1` [PCM-0095495], the inhibition at 10 µM was -6.2%. Same read-out and setting: then `Cc1oncc1C(=O)Nc1ccc(C(F)(F)F)cc1` [PCM-0065349], with -5.5%; and `C[C@H]1O[C@@H](O[C@H]2CC[C@@]3(C)[C@@H](CC[C@]4(C)[C@@H]3C=CC3=C5CC(C)(C)CC[C@]5(CO)[C@@H](O)C[C@]34C)[C@]2(C)CO)[C@H](O[C@@H]2O[C@H](CO)[C@@H](O)[C@H](O)[C@H]2O)[C@@H](O[C@@H]2O[C@H](CO)[C@@H](O)[C@H](O)[C@H]2O)[C@H]1O` [PCM-0216370], with 25.5%; and `CC(C)c1cccc(O)c(=O)c1` [PCM-0215059], with 3.9%. Consider `CO/N=C(\C(=O)N[C@@H]1C(=O)N2C(C(=O)[O-])=C(C[n+]3cccc4c3CCCC4)CS[C@H]12)c1csc(N)n1` [PCM-0216083], for which the inhibition at 10 µM is 9.3%.

Take `O=C(Nc1ccc(S(=O)(=O)Nc2ccccc2Cl)c(Cl)c1)c1ccccn1` [PCM-0095621]: the inhibition at 10 µM was -21.6%.

`O=C(Oc1cc(S(=O)(=O)c2ccccc2)ccc1[N+](=O)[O-])c1ccc(Cl)cc1` [PCM-0004196]: the inhibition at 10 µM is -3.1%. With `CC(=O)N1CCN(CCOc2ccc(C3CCN(C4=Nn5c(nnc5C(F)(F)F)CC4)CC3)cc2)CC1` [PCM-0215224], the inhibition at 10 µM is -17%. Same read-out and setting: the result for `CC(C)(Cc1ccc2ccccc2c1)NC[C@@H](O)COc1cccc(Cl)c1C#N` [PCM-0095749] reads -11.7%; that for `CC(C)c1onc(-c2c(Cl)cccc2Cl)c1COc1ccc(/C=C/c2cccc(C(=O)O)c2)c(Cl)c1` [PCM-0095360], 52.4%; that for `Cc1cc(=O)oc2c(C=O)c(O)ccc12` [PCM-0215276], 82.6%.

For `OCCc1c[nH]c2ccccc12` [PCM-0215120], the inhibition at 10 µM was -24.1%. In the case of `COc1cccc(-c2cc(F)ccc2[C@H]2Cc3nc(N)nc(C)c3C(=O)N2)n1` [PCM-0215352], the inhibition at 10 µM was 2.3%. Still for that read-out and setting: the result for `Cc1ncc(Cl)cc1NCc1ccc(C(=O)N[C@@H](CC2CCCC2)C(=O)NC2CC2)s1` [PCM-0215421] reads 15.4%. For `C[C@H]1O[C@@H](O[C@H]2CC[C@@]3(C)[C@@H](CC[C@]4(C)[C@@H]3C=CC3=C5CC(C)(C)CC[C@]5(CO)[C@H](O)C[C@]34C)[C@]2(C)CO)[C@H](O)[C@@H](O[C@@H]2O[C@H](CO)[C@@H](O)[C@H](O)[C@H]2O)[C@H]1O` [PCM-0216536], the inhibition at 10 µM was 5.4%. The same measure, in the same setting: then `Nc1ccc(C(=O)Nc2cccc(-c3nc(N4CCOCC4)c4oc5ncccc5c4n3)c2)cn1` [PCM-0094950], with -4.8%; and `O=C(Nc1ccccc1Br)N[C@@H]1CCN(c2ccc(C(F)(F)F)cn2)C1` [PCM-0095337], with -17.1%. Still for that read-out and setting: the result for `N#C/C(=C\c1ccc(-c2cc(Cl)ccc2Cl)o1)C(=O)Nc1cccc2ncccc12` [PCM-0215369] reads 22.4%. Still for that read-out and setting: then `CO[C@@H]1[C@@H](OC(N)=O)[C@@H](O)[C@H](Oc2ccc3c(O)c(NC(=O)c4ccc(O)c(CC=C(C)C)c4)c(=O)oc3c2C)OC1(C)C` [PCM-0086469], with 7%; and `c1ccc(-c2ccc(C(c3ccccc3)n3ccnc3)cc2)cc1` (stereo not shown) [PCM-0086296], with 33.5%. On to `O=C1c2ccc(Nc3ccc(F)cc3F)cc2CCc2ccc(OC[C@H](O)CO)cc21` [PCM-0215248], for which the inhibition at 10 µM stood at 13.1%.
